In article PMC3567211 (2012) one finds KA data, which are given here for one compound.

The structures appear in SMILES notation.

This assay concerns TGGCTT (5'-biotin labeled hairpin DNA) (DNA, hairpin) CCTTGGCTTCTTTTGAAGCCAAGG
Nature of the assay: SPR, global kinetic 1:1 fit. The conditions noted are these: 50 mM Na+ (NaCl); 10 mM HEPES, 1 mM EDTA, 0.05% P20, pH 7.4, 25 °C. A general note: SPR reads the build-up and loss of mass on a sensor chip optically.

As for `CN(C)CCCNC(=O)CCNC(=O)c1cc(NC(=O)c2cc(NC(=O)c3nc(NC(=O)c4cc(NC(=O)CCCNC(=O)c5cc(NC(=O)c6cc(NC(=O)c7nc(NC(=O)c8nccn8C)cn7C)cn6C)cn5C)cn4C)cn3C)cn2C)cn1C`, the KA is recorded as 37 ± 7 × 10^8 M^-1.
